Laboratory results as given in PMC8388771, “Cationic Peptidomimetic Amphiphiles Having a N-Aryl- or N-Naphthyl-1,2,3-Triazole Core Structure Targeting Clostridioides (Clostridium) difficile: Synthesis, Antibacterial Evaluation, and an In Vivo C. difficile Infection Model” (Antibiotics, 2021).
Converted amounts (≈) assume the structure as drawn. Read-outs that look alike come from different tables or passages of the source.

Legend:
[1] = system: C. difficile; experiment: MIC against C. difficile, strain not given; assay type: cell-based; settings: Clostridioides difficile, strains of Table 1
Description: (§1) Primary screening (Gram-positive bacteria). Primary MIC assays were performed as described by the Clinical and Laboratory Standards Institute for aerobic and anaerobic bacteria. MIC values for vancomycin were within acceptable QC ranges.

[2] = Cytotoxicity (CC50) assay by CO-ADD; assay type: cell-based, human; settings: human, HEK293 cells (ATCC CRL-1573); Table 1; cytotoxicity on HEK293 cells, tested at ≤32 µg/mL
From the text: (§2) The N-arytriazole and N-naphthyltriazole peptidomimetics were subjected to antimicrobial screening. […] Vancomycin, colistin, fluconazole, and tamoxifen were used as positive controls (see Table 1 for details).
(§3) Secondary screening (MRSA and Gram-negative bacteria) and cytotoxicity assay–performed by the Community for Open Antimicrobial Drug Discovery (CO-ADD). Samples were provided to CO-ADD [29] for antimicrobial screening by whole cell growth inhibition assays.
Cytotoxicity Assay. These were performed as described previously.

[3] = system: C. difficile ATCC 700057; experiment: Primary MIC assay, C. difficile ATCC 700057; assay type: cell-based, Clostridioides difficile; settings: Table 1; for MIC: Clostridioides difficile, ATCC700057, read-out: MIC C. difficile ATCC 700057
Description: as §2, §1

[4] = system: K. pneumoniae ATCC 700603; experiment: CO-ADD MIC assay, K. pneumoniae ATCC 700603; assay type: cell-based; settings: Klebsiella pneumoniae, ATCC700603, Table S1, multi-drug resistant
From the text: as §2, §3
(§4) Bacterial Inhibition–MIC Assay. These were performed as described previously.

[5] = system: C. difficile 132 (RT027); experiment: Primary MIC assay, C. difficile 132 (RT027); assay type: cell-based, Clostridioides difficile; settings: Table 1; for MIC: Clostridioides difficile, read-out: MIC C. difficile 132 (RT027)
Description: as §2, §1

[6] = system: E. faecalis ATCC 29212; experiment: Primary MIC assay, E. faecalis ATCC 29212; assay type: cell-based, Enterococcus faecalis; settings: Enterococcus faecalis, ATCC29212; Table 1; read-out: MIC E. faecalis ATCC 29212
Description: as §2, §1

[7] = system: C. difficile strain M7404 (RT027); experiment: In vivo murine model of CDI treatment; set-up: species or system C57BL/6J mice
Description: Disease Treatment Model. These experiments were performed as previously described. Mice were humanely killed at the onset of severe disease or at the end of the experiment (day 4), as previously described.
Statistical Analysis. Statistical analysis was performed using Prism 7 (GraphPad Software). The Kaplan–Meier survival curves were assessed using a log-rank (Mantel–Cox) test. Weight loss, spore shedding, fecal consistency, and physiological appearance data were analyzed by one-way ANOVA with a post hoc Tukey’s multiple comparison test. Differences in data values were considered significant at a p value of <0.05.
Figure 3 C57BL/6J mice (n = 5 per group) were infected with 10^5 spores of C. difficile strain M7404 (RT027). Six hours post-infection and then every 12 h thereafter, mice were administered either 10% DMSO (blue) or 2.5 mg (100 mg/kg in 10% DMSO) of compound 40 (red) by oral gavage. Mice were monitored daily for survival (a) and weight loss relative to day 0, which was the day of infection (b). Fecal spore load at 1-day post-infection was determined by plating (c). Data are presented as CFU/gram feces, with each point representing a single mouse. Mouse cages were scored on day 1 post-infection for appearance (d) and mice were individually assessed for fecal consistency (e) and physiological appearance (f). Data represent the mean ±S.E.M. and statistical significance was assessed using a log-rank (Mantel–Cox) test or one-way ANOVA with a post hoc Tukey’s multiple comparison test. […]
The murine model of CDI was conducted with project collaborators at Monash University. The murine model of CDI was performed by pretreating cohorts of five mice that had been earlier infected via oral gavage with hypervirulent M7404 C. difficile spores. The infection was allowed to develop for 12 h before the trial drug was administered every 12 h for five days. The mice received a single dosage of 2.5 mg of […] (i.e.
100 mg/kg for an average 25 g mouse) administered in a solvent mixture of 10% DMSO and H2O at each 12 h dosing period. The mice body weight was checked every day. If a mouse lost 10% of its body weight in the first 24 h, then the infection was developing, and the mouse was separated from the trial and culled for ethical reasons. The whole survival rate for every drug cohort was utilized to measure effectiveness of that drug.
Other physiological parameters such as cage appearance scores and faecal consistency scores were additional measures for the efficacy of the drug in this murine trial. The experimental data of the in vivo CDI model can be found in Section 3.3.3 and the experimental procedures can be found in Section 6.4.3.
Compound 40 was selected for a murine model of CDI study because of its better antimicrobial potency against C. difficile and its better water solubility profile (Section 3.2.7). Compound 40 was prepared on a larger scale i.e. nearly 300 mg for the purpose of in vivo mouse model of CDI at Monash University. […]
In the secondary CDI mouse model trial, the solution (10% v/v DMSO/H2O) of the compound 40 was ad-ministered to mice by oral gavage.

[8] = system: S. aureus ATCC 43300; experiment: CO-ADD MIC assay, S. aureus ATCC 43300 (MRSA); assay type: cell-based; settings: Staphylococcus aureus, MRSA, read-out: MIC S. aureus ATCC 43300
From the text: as §2, §3, §4

[9] = system: A. baumannii ATCC 19606; experiment: CO-ADD MIC assay, A. baumannii ATCC 19606; assay type: cell-based; settings: Acinetobacter baumannii, ATCC19606, Table S1
From the text: as §2, §3, §4

[10] = system: P. aeruginosa ATCC 27853; experiment: CO-ADD MIC assay, P. aeruginosa ATCC 27853; assay type: cell-based; settings: Pseudomonas aeruginosa, ATCC27853, Table S1
From the text: as §2, §3, §4

[11] = system: S. aureus NCTC 10442; experiment: Primary MIC assay, S. aureus NCTC 10442 (MRSA); assay type: cell-based; settings: Staphylococcus aureus, MRSA
Description: as §2, §1

[12] = system: E. coli ATCC 25922; experiment: Primary MIC assay, E. coli ATCC 25922; assay type: cell-based; settings: Escherichia coli, ATCC25922; Table 1; read-out: MIC E. coli ATCC 25922
[13] = system: Cryptococcus neoformans var. grubii ATCC 208821; experiment: CO-ADD MIC assay, C. neoformans var. grubii ATCC 208821; assay type: cell-based; settings: for MIC: Cryptococcus neoformans, ATCC208821, Table S1; for MIC C. neoformans var. grubii ATCC 208821: Table S1
From the text: as §2, §3

[14] = system: C. albicans ATCC 90028; experiment: CO-ADD MIC assay, C. albicans ATCC 90028; assay type: cell-based; settings: Candida albicans, ATCC90028, Table S1
From the text: as §2, §3

[15] = system: human erythrocytes; experiment: Hemolysis assay, HC50 determination; assay type: cell-based
Description: Hemolysis assay (human erythrocytes)–HC50 determination. These were performed as described previously.

[16] = system: S. aureus ATCC 29213; experiment: Primary MIC assay, S. aureus ATCC 29213; assay type: cell-based; settings: Staphylococcus aureus, ATCC29213; Table 1; read-out: MIC S. aureus ATCC 29213
Description: as §2, §1

[17] = system: S. pneumoniae ATCC 49619; experiment: Primary MIC assay, S. pneumoniae ATCC 49619; assay type: cell-based, Streptococcus pneumoniae; settings: Streptococcus pneumoniae, ATCC49619; Table 1; read-out: MIC S. pneumoniae ATCC 49619
Description: as §2, §1

[18] = Comparative solubility assay (solubility ratio relative to compound 1); assay type: physicochemical
From the text: While the selectivity ratio could be more substantial, this is acceptable for the future development of these gastrointestinal focused compounds. […] These outcomes were confirmed with no issues during the mouse model trials with sufficient solubility in the dosage regimen. Variations on the triazole and O-naphthyl substituents could be made in future studies with the view of enhancing antibacterial activity against C. difficile.

[19] = system: E. coli ATCC 25922; experiment: CO-ADD MIC assay, E. coli ATCC 25922; assay type: cell-based; settings: Escherichia coli, ATCC25922, Table S1
From the text: as §2, §3, §4

[20] = MRSA / NCTC 10442 / NCTC 104422, Table 2, read-out: MIC S. aureus NCTC 104422
[21] = Table 1, read-out: MIC S. aureus NCTC 10442
[22] = Table 1, lysis of human erythrocytes
[23] = Table 2, footnote says lysis of sheep erythrocytes
[24] = Table S1, footnote says lysis of sheep erythrocytes

Row | Structure (SMILES) | MIC [1] | CC50 [2] | MIC [3] | MIC C. difficile ATCC 700057 [3] | MIC [4] | MIC [5] | MIC C. difficile 132 (RT027) [5] | MIC [6] | MIC ([8]; Table S1, CO-ADD) | MIC [9] | MIC [10] | MIC [11, 21] | MIC [12] | MIC [13] | MIC [14] | HC50 [15, 22] | HC50 [15, 24] | MIC [16] | MIC [17] | MIC [19] | other results
1 | CC(C)CCc1cn(-c2c(OCC(=O)N[C@H](CCCCN)C(=O)N[C@H](CCCNC(=N)N)Cn3cc(C4CCCCC4)nn3)ccc3ccccc23)nn1.Cl.Cl [Compound 40, (R)-6-Amino-N-((R)-1-(4-cyclohexyl-1H-1,2,3-triazol-1-yl)-5-guanidinopentan-2-yl)-2-(2-((1-(4-isopentyl-1H-1,2,3-triazol-1-yl)naphthalen-2-yl)oxy)acetamido)hexanamide dihydrochloride] | 8 µg/mL | 32 µg/mL | 8 µg/mL | 8 µg/mL | > 32 µg/mL | 8 µg/mL | 8 µg/mL | 32 µg/mL | 8 µg/mL | 32 µg/mL | 32 µg/mL | 16 µg/mL | 64 µg/mL | 4 to 8 µg/mL | > 32 µg/mL | 32 µg/mL | 32 µg/mL | 16 µg/mL | 16 µg/mL | 32 µg/mL | disease onset compared to mice treated with DMSO ([7]; 100 mg/kg oral gavage): delayed disease onset; effect on spore numbers shed in the feces ([7]; 1-day post-infection): no effect; greater survival compared with mice treated with DMSO ([7]; day 1 post-infection): 40%; individual fecal score vs DMSO group ([7]; day 1 post-infection): no significant difference; overall cage appearance score compared to DMSO ([7]; day 1 post-infection): lower; physiological appearance score vs DMSO group ([7]; day 1 post-infection): no significant difference; survival outcome ([7]; day 2): succumbed to infection by day 2; survival observed after 24 h ([7]; mice, 100 mg/kg in 10% DMSO by oral gavage every 12 h, DMSO control 40%): 80%; effect on mouse weight ([7]; weight loss relative to day 0): no effect; MIC ([8]; Table 2): 8 µg/mL; MIC [11, 20]: 16 µg/mL; MIC C. neoformans var. grubii ATCC 208821 [13]: 4 µg/mL; HC50 [15, 23]: 32 µg/mL; relative solubility ratio (relative to compound 1) [18]: 5
2 | CC(C)CCc1cn(-c2c(OCC(=O)N[C@H](CCCCN)C(=O)N[C@H](CCCNC(=N)N)Cn3cc(Cc4ccccc4)nn3)ccc3ccccc23)nn1.Cl.Cl [Compound 42] | 8 µg/mL | 32 µg/mL | 8 µg/mL | 8 µg/mL | > 32 µg/mL | 8 µg/mL | 8 µg/mL | 8 µg/mL | 8 µg/mL | 32 µg/mL | 32 µg/mL | 8 µg/mL | 32 µg/mL | 4 to 8 µg/mL | > 32 µg/mL | 32 µg/mL | 32 µg/mL | 8 µg/mL | 8 µg/mL | 32 µg/mL | MIC ([8]; Table 2): 8 µg/mL; MIC [11, 20]: 8 µg/mL; MIC C. neoformans var. grubii ATCC 208821 [13]: 8 µg/mL; HC50 [15, 23]: 32 µg/mL; relative solubility ratio (relative to compound 1) [18]: 4
3 | CC(C)CCOc1ccccc1-n1nncc1COCC(=O)N[C@H](CCCCN)C(=O)N[C@H](CCCNC(=N)N)Cn1cc(CC2CCCCC2)nn1 [Compound 49] |  | > 32 µg/mL | > 32 µg/mL |  | > 32 µg/mL | > 32 µg/mL |  | > 32 µg/mL | 32 µg/mL (≈ 43.4 µM) | > 32 µg/mL | > 32 µg/mL | > 32 µg/mL | > 32 µg/mL | > 32 µg/mL | > 32 µg/mL | 17.1 µg/mL | 17.1 µg/mL | 32 µg/mL (≈ 43.4 µM) | > 32 µg/mL | > 32 µg/mL | 
4 | CC(C)CCOc1ccccc1-n1nncc1COCC(=O)N[C@H](CCCCN)C(=O)N[C@H](CCCNC(=N)N)Cn1cc(Cc2ccccc2)nn1 [Compound 50] |  | > 32 µg/mL | > 32 µg/mL |  | > 32 µg/mL | > 32 µg/mL |  | > 32 µg/mL | 32 µg/mL (≈ 43.8 µM) | > 32 µg/mL | > 32 µg/mL | > 32 µg/mL | > 32 µg/mL | > 32 µg/mL | > 32 µg/mL | 19.8 µg/mL | 19.8 µg/mL | 32 µg/mL (≈ 43.8 µM) | > 32 µg/mL | > 32 µg/mL | 
